Values joined by “and” are separate entries in the source; they are usually repeats but may differ in a detail not shown here. Identical values can stand only once.

Holding throughout (type): cell-based
In one experiment the test system is melanoma TILs. Nature of the experiment: Comparison of microfluidic chips and anti-CD3 antibody clones used in REP (mbIL-2/mbIL-12 expression). The settings on record: anti-CD3 clone used in REP culture; 4 hours post squeeze. The source says: As described herein, TILs are often expanded to increase their number prior to their use in adoptive transfer studies Such expansion phase can involve the use of anti-CD3 antibodies to activate and induce the TILs to proliferate. Whether the specific anti-CD3 antibody clone used in the expansion phase was next assessed. Briefly, melanoma TILs were collected from REP cultures that contained different anti-CD3 clones (OKT3, SK7, HIT3a, or UCHT1). Following cell harvest, the post-REP TILs were resuspended at 40 million live cells/mL cell density as 2× concentration. The cells were mixed with equal volume of 2× mRNA solution and squeezed through various chip types (10-3.5-70 SF, 10-4-70 ST) and pressure (30 psi) at room temperature. Final concentration of cells was 20 million live cells/mL. Final mRNA concentration for squeeze was […] for each of mbIL-2 and mbIL-12 mRNA. Following the squeeze processing, cells were quenched in CTS OpTmizer media and spun immediately. […] The squeezed TILs were assessed at 4 hours post squeeze by flow cytometry for viability, cell composition, and surface levels of mbIL-2 and mbIL-12.

A further experiment concerns lung TILs. In words: Comparison of anti-CD3 antibody concentration in pre-REP (mbIL-2/mbIL-12 and CD62L expression). The settings on record: 6 or 30 ng/mL anti-CD3 antibody (OKT3 clone) during pre-REP. The procedure:
As described herein, in some aspects, prior to modifying the TILs, the TILs can undergo a first expansion phase (pre-REP) and a second expansion phase (REP). Whether the concentration of the anti-CD3 antibody during the first expansion phase has an effect in producing the modified TILs described herein, the following methods were used. Briefly, lung TILs underwent a pre-REP process in the absence or presence of 6 or 30 ng/mL anti-CD3 antibody (OKT3 clone). Then, the TILs were collected and further expanded in a REP process. Afterwards, the cells were resuspended at 40 million live cells/mL cell density as 2× concentration. The cells were mixed with equal volume of 2× mRNA solution and squeezed through 10-4-70 ST at 60 psi at room temperature. Final concentration of cells was 20 million live cells/mL. Final mRNA concentration for squeeze was […] for each of mbIL-2 and mbIL-12 mRNA. Following squeezing, cells were quenched in CTS OpTmizer media and spun immediately. […] The squeezed TILs were assessed at 4, 24, and 48 hours post squeeze by flow cytometry for viability, cell composition, surface levels of mbIL-2 and mbIL-12.

Another experiment relates to TILs. Nature of the experiment: Effect of anti-CD3 antibody on TIL expansion from melanoma tumor fragments (NucleoCounter NC-200). The settings on record: for Cell Count on Day 13 / Viability on Day 13: 6,000 IU/mL recombinant IL-2, replicate wells. As to the method:
Further to the data provided in Example 22, the effect of anti-CD3 antibody on TIL expansion was further assessed. Briefly, freshly resected melanoma tumor was rinsed in 1× Hank's Balanced Salt Solution (HBSS) with 10 μg/mL gentamicin and dissected into 8-27 mm^3 fragments using a forceps and scalpel. […] Five tumor fragments, 8-27 mm^3 in size, per well were added to the G-Rex6M plate. The G-Rex6M plate was then placed in a 37° C., 5% CO2 incubator for 4 days.
On day 4, the G-Rex6M plate was removed from the incubator. […] The G-Rex6M plate was returned to the 37° C., 5% CO2 incubator for an additional 9 days.
On day 13, the TILs were harvested and transferred to a 50 mL conical tube. The number and viability of the TILs was assessed using a NucleoCounter NC-200.

“OKT3: anti-CD3 antibody clone used in TIL expansion”: the “mbIL-2 and mbIL-12 expression (percentage of total cells and MFI)” value in the experiment with melanoma TILs was “higher expression”. In the experiment with lung TILs, the “impact on translation kinetics of mbIL-2 and mbIL-12 expression” value is recorded as “minimal impact”. Besides, the “Cell Count on Day 13” value is 2.35 × 10^8 and 2.43 × 10^8 in the experiment on TILs (6 ng/mL OKT3); 2.00 × 10^8 and 2.17 × 10^8 with TILs (20 ng/mL OKT3). Moreover, the “Viability on Day 13” value in the experiment on TILs (6 ng/mL OKT3) is 90.7% and 91.1%; in the experiment with TILs (20 ng/mL OKT3), 90.5% and 91.6%. In the experiment with TILs (6 or 30 ng/mL of OKT3, day 13, compared to culture without OKT3), the TIL expansion result is reported as “greater TIL expansion”.

For the origin of these results see patent US20250327027A1, “METHODS TO GENERATE ENHANCED TUMOR INFILTRATING LYMPHOCYTES THROUGH MICROFLUIDIC DELIVERY” (STEMCELL TECHNOLOGIES CANADA INC., priority 2021, published 2025).
